From patent US20080319043A1, “3,6-Disubstituted Azabicyclo (3.1.0) Hexane Derivatives as Muscarinic Receptor Antagonists” (priority 2005, published 2008) come the findings set out here.

For one data set, the system named is isolated rat bladder. The experiment in a line: tissue or blood. Conditions: read-out: pKb (converted).

What is called melting point is the temperature of the solid-liquid transition. Compound `O=C(NCC1C2CNCC21)C(O)(c1ccccc1)c1cccs1` (centres unmarked) [Compound No. 18, N-(3-Azabicyclo[3.1.0]hex-6-ylmethyl)-2-hydroxy-2-phenyl-2-(2-thienyl)acetamide] displayed a melting point of 70 to 75 °C.

Regarding `Cc1cccc(C(O)(C(=O)OCC2C3CNCC32)c2cccc(C)c2)c1` (centres unmarked) [Compound No. 27, 3-Azabicyclo[3.1.0]hex-6-ylmethyl hydroxy[bis(3-methylphenyl)]acetate], the melting point lay within 105 to 108 °C.

Regarding `Nc1cccc(CN2CC3C(CNC(=O)C(O)(c4ccccc4)C4CCCC4)C3C2)n1` (centres unmarked) [Compound No. 51, N-({3-[(6-Aminopyridin-2-yl)methyl]-3-azabicyclo[3.1.0]hex-6-yl}methyl)-2-cyclopentyl-2-hydroxy-2-phenylacetamide], in the data set on isolated rat bladder, the Kb was 2.51 to 39.8 nM. With `CC1C2C(CNC(=O)C(O)(c3ccccc3)C3CCCC3)C2CN1Cc1ccccc1` (centres unmarked) [Compound No. 60, N-[(3-Benzyl-2-methyl-3-azabicyclo[3.1.0]hex-6-yl)methyl]-2-cyclopentyl-2-hydroxy-2-phenylacetamide], in the data set with isolated rat bladder, the Kb was 2.51 to 39.8 nM. On the same count and under the same terms, the same measure for `O=C(NCC1C2CN(Cc3ccc4c(c3)OCO4)CC12)C(O)(c1ccccc1)C1CCCCC1` (centres unmarked) [Compound No. 80, N-{[3-(1,3-Benzodioxol-5-ylmethyl)-3-azabicyclo[3.1.0]hex-6-yl]methyl}-2-cyclohexyl-2-hydroxy-2-phenylacetamide]: 2.51 to 39.8 nM.
